# Experimental data from the supplement of paper PMC10307832.
# Assays:
# Assay in all cases: relative viability (nuclei count vs DMSO), 5 days (fraction); higher = more cells survive
# A-427 = test system: A-427
# Method in brief: (§1)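 For relative viability, nuclei counts in treated wells were divided by those in vehicle wells. Lung cancer cell lines had been pin-tool dosed in 1536-well plates the day after seeding and cultured for 5 days, then fixed and stained in one step (final 0.05% Triton X-100, 1% formaldehyde, 1 ug/ml Hoechst) and imaged at 4×. Doses were one drug alone or a fixed anchor-drug dose plus five library-drug doses (not always all listed) in √10 steps, and values are duplicate-plate medians.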
# NCI-H650 = test system: NCI-H650
# Method in brief: as §1
# NCI-H1650 = test system: NCI-H1650
# Method in brief: as §1
# 201T = test system: 201T
# Method in brief: as §1
# NCI-H358 = test system: NCI-H358
# Method in brief: as §1
# COR-L23 = test system: COR-L23
# Method in brief: as §1
# SK-MES-1 = test system: SK-MES-1
# Method in brief: as §1
# BEN = test system: BEN
# Method in brief: as §1
# NCI-H2342 = test system: NCI-H2342
# Method in brief: as §1
# HCC-44 = test system: HCC-44
# Method in brief: as §1
# NCI-H1975 = test system: NCI-H1975
# Method in brief: as §1
# EKVX = test system: EKVX
# Method in brief: as §1
# NCI-H1437 = test system: NCI-H1437
# Method in brief: as §1
# HCC-15 = test system: HCC-15
# Method in brief: as §1
# NCI-H441 = test system: NCI-H441
# Method in brief: as §1
# NCI-H838 = test system: NCI-H838
# Method in brief: as §1
# SW 900 = test system: SW 900
# Method in brief: as §1
# NCI-H23 = test system: NCI-H23
# Method in brief: as §1
# HARA = test system: HARA
# Method in brief: as §1
# HCC-827 = test system: HCC-827
# Method in brief: as §1
# NCI-H1666 = test system: NCI-H1666
# Method in brief: as §1
# NCI-H596 = test system: NCI-H596
# Method in brief: as §1
compound,measurement,setting,value
O=c1cc(N2CCOCC2)oc2c(-c3cccc4c3sc3ccccc34)cccc12 + O=C(CCCCCCC(=O)Nc1ccccc1)NO [Vorinostat] (partner 1 µM),relative viability,A-427; first compound 0.01 µM,0.844
same,relative viability,A-427; first compound 0.03162 µM,0.95
same,relative viability,A-427; first compound 0.1 µM,0.843
same,relative viability,A-427; first compound 0.3162 µM,0.82
same,relative viability,A-427; first compound 1 µM,0.86
same,relative viability,NCI-H650; first compound 0.01 µM,0.537
same,relative viability,NCI-H650; first compound 0.03162 µM,0.412
same,relative viability,NCI-H650; first compound 0.3162 µM,0.496
same,relative viability,NCI-H650; first compound 1 µM,0.402
same,relative viability,NCI-H1650; first compound 0.01 µM,0.485
same,relative viability,NCI-H1650; first compound 0.03162 µM,0.692
same,relative viability,NCI-H1650; first compound 0.1 µM,0.547
same,relative viability,NCI-H1650; first compound 0.3162 µM,0.631
same,relative viability,NCI-H1650; first compound 1 µM,0.49
same,relative viability,201T; first compound 0.01 µM,0.961
same,relative viability,201T; first compound 0.03162 µM,0.95
same,relative viability,201T; first compound 0.1 µM,0.982
same,relative viability,201T; first compound 0.3162 µM,0.959
same,relative viability,201T; first compound 1 µM,0.915
same,relative viability,NCI-H358; first compound 0.01 µM,0.676
same,relative viability,NCI-H358; first compound 0.03162 µM,0.619
same,relative viability,NCI-H358; first compound 0.1 µM,0.75
same,relative viability,NCI-H358; first compound 0.3162 µM,0.702
same,relative viability,NCI-H358; first compound 1 µM,0.689
same,relative viability,COR-L23; first compound 0.01 µM,0.578
same,relative viability,COR-L23; first compound 0.03162 µM,0.503
same,relative viability,COR-L23; first compound 0.1 µM,0.473
same,relative viability,COR-L23; first compound 0.3162 µM,0.424
same,relative viability,COR-L23; first compound 1 µM,0.54
same,relative viability,SK-MES-1; first compound 0.01 µM,1.04
same,relative viability,SK-MES-1; first compound 0.03162 µM,1.06
same,relative viability,SK-MES-1; first compound 0.1 µM,1.04
same,relative viability,SK-MES-1; first compound 0.3162 µM,1.04
same,relative viability,SK-MES-1; first compound 1 µM,1.09
same,relative viability,BEN; first compound 0.01 µM,0.56
same,relative viability,BEN; first compound 0.03162 µM,0.627
same,relative viability,BEN; first compound 0.1 µM,0.49
same,relative viability,BEN; first compound 0.3162 µM,0.583
same,relative viability,BEN; first compound 1 µM,0.655
same,relative viability,NCI-H2342; first compound 0.01 µM,0.708
same,relative viability,NCI-H2342; first compound 0.03162 µM,0.828
same,relative viability,NCI-H2342; first compound 0.1 µM,0.748
same,relative viability,NCI-H2342; first compound 0.3162 µM,0.729
same,relative viability,NCI-H2342; first compound 1 µM,0.637
same,relative viability,HCC-44; first compound 0.01 µM,1.05
same,relative viability,HCC-44; first compound 0.03162 µM,1.05
same,relative viability,HCC-44; first compound 0.1 µM,1.06
same,relative viability,HCC-44; first compound 0.3162 µM,1.03
same,relative viability,HCC-44; first compound 1 µM,1.07
same,relative viability,NCI-H1975; first compound 0.01 µM,0.672
same,relative viability,NCI-H1975; first compound 0.03162 µM,0.69
same,relative viability,NCI-H1975; first compound 0.1 µM,0.733
same,relative viability,NCI-H1975; first compound 0.3162 µM,0.641
same,relative viability,NCI-H1975; first compound 1 µM,0.368
same,relative viability,EKVX; first compound 0.01 µM,0.723
same,relative viability,EKVX; first compound 0.03162 µM,0.748
same,relative viability,EKVX; first compound 0.1 µM,0.681
same,relative viability,EKVX; first compound 0.3162 µM,0.753
same,relative viability,EKVX; first compound 1 µM,0.736
same,relative viability,NCI-H1437; first compound 0.01 µM,0.822
same,relative viability,NCI-H1437; first compound 0.03162 µM,0.874
same,relative viability,NCI-H1437; first compound 0.1 µM,0.866
same,relative viability,NCI-H1437; first compound 0.3162 µM,0.784
same,relative viability,NCI-H1437; first compound 1 µM,0.806
same,relative viability,HCC-15; first compound 0.01 µM,0.839
same,relative viability,HCC-15; first compound 0.03162 µM,0.775
same,relative viability,HCC-15; first compound 0.1 µM,0.858
same,relative viability,HCC-15; first compound 0.3162 µM,0.765
same,relative viability,HCC-15; first compound 1 µM,0.847
same,relative viability,NCI-H441; first compound 0.01 µM,0.731
same,relative viability,NCI-H441; first compound 0.03162 µM,0.704
same,relative viability,NCI-H441; first compound 0.1 µM,1.09
same,relative viability,NCI-H441; first compound 0.3162 µM,0.829
same,relative viability,NCI-H441; first compound 1 µM,0.724
same,relative viability,NCI-H838; first compound 0.01 µM,0.752
same,relative viability,NCI-H838; first compound 0.03162 µM,0.716
same,relative viability,NCI-H838; first compound 0.1 µM,0.686
same,relative viability,NCI-H838; first compound 0.3162 µM,0.657
same,relative viability,NCI-H838; first compound 1 µM,0.698
same,relative viability,SW 900; first compound 0.03162 µM,0.508
same,relative viability,SW 900; first compound 0.1 µM,0.364
same,relative viability,SW 900; first compound 0.3162 µM,0.544
same,relative viability,SW 900; first compound 1 µM,0.359
same,relative viability,NCI-H23; first compound 0.01 µM,0.555
same,relative viability,NCI-H23; first compound 0.03162 µM,0.68
same,relative viability,NCI-H23; first compound 0.3162 µM,0.795
same,relative viability,NCI-H23; first compound 1 µM,0.537
same,relative viability,HARA; first compound 0.01 µM,0.409
same,relative viability,HARA; first compound 0.03162 µM,0.588
same,relative viability,HARA; first compound 0.1 µM,0.543
same,relative viability,HARA; first compound 0.3162 µM,0.546
same,relative viability,HARA; first compound 1 µM,0.46
same,relative viability,HCC-827; first compound 0.01 µM,0.897
same,relative viability,HCC-827; first compound 0.03162 µM,0.848
same,relative viability,HCC-827; first compound 0.1 µM,0.643
same,relative viability,HCC-827; first compound 0.3162 µM,0.779
same,relative viability,HCC-827; first compound 1 µM,0.774
same,relative viability,NCI-H1666; first compound 0.01 µM,0.985
same,relative viability,NCI-H1666; first compound 0.03162 µM,1.04
same,relative viability,NCI-H1666; first compound 0.1 µM,1.19
same,relative viability,NCI-H1666; first compound 0.3162 µM,1.03
same,relative viability,NCI-H1666; first compound 1 µM,1.04
same,relative viability,NCI-H596; first compound 0.01 µM,0.564
same,relative viability,NCI-H596; first compound 0.03162 µM,0.586
same,relative viability,NCI-H596; first compound 0.1 µM,0.581
same,relative viability,NCI-H596; first compound 0.3162 µM,0.626
same,relative viability,NCI-H596; first compound 1 µM,0.573
